Earlier results, collected in PMC3079564 (Chemical biology & drug design, 2011).

Assays:
[1] = test system: gp120 from the YU2 strain
[2] = test system: recombinant HIV-1 carrying HIV-1YU2 envelope glycoproteins on Cf2Th-CCR5 cells lacking CD4

## CC1(C)CC(NC(=O)C(=O)Nc2ccc(Cl)cc2)CC(C)(C)N1 [NBD-556]
[1]; 25 °C
  -TΔS of binding to gp120: 17.1 kcal/mol
  ΔH of binding to gp120: -24.5 kcal/mol
[1]; NBD-556
  measured heat capacity change on binding to gp120: -1.0 kcal/(K × mol)
[2]
  enhancement of viral infectivity in CD4 negative cells: three orders of magnitude
